Earlier results as cited in US6048869A, “Tricyclic compounds” (Merck & Co., Inc., priority 1999, dated 2000).

Key:
5α-reductase 1 = conditions: isozyme predominating in sebaceous glands of facial and skin tissue; Harris et al. 1992

For `CC(C)(C)NC(=O)[C@H]1CC[C@H]2[C@@H]3CC[C@H]4NC(=O)C=C[C@]4(C)[C@H]3CC[C@]12C` [Finasteride, 17,-(N-tert-butylcarbamoyl)-3-oxo-4-aza-5 α-androst-1-ene-3-one], the “sensitivity of type 1 5α-reductase to finasteride” value (5α-reductase 1) is given as “relatively insensitive”, the “inhibition of the human prostate enzyme” value (5α-reductase 2; human prostate enzyme) is given as “potent inhibitor” and the “inhibition of type 2 5α-reductase” value (5α-reductase 2; isozyme predominating in the prostate) is given as “potently inhibited”.
